Experiments:
H723R-pendrin [1] = target: T1, H723R-pendrin (Homo sapiens, UniProt O43511, H723R); assay: YFP fluorescence quenching assay (Cl−/I− exchange activity of pendrin); assay type: cell-based; details: PANC-1 cells stably expressing human H723R-pendrin and YFP-F46L/H148Q/I152L; compound incubation 20-24 hours; iodide influx
T1 construct: expressed in transfected cells; host or cells: PANC-1
T1 sequence (O43511 1-780 H723R): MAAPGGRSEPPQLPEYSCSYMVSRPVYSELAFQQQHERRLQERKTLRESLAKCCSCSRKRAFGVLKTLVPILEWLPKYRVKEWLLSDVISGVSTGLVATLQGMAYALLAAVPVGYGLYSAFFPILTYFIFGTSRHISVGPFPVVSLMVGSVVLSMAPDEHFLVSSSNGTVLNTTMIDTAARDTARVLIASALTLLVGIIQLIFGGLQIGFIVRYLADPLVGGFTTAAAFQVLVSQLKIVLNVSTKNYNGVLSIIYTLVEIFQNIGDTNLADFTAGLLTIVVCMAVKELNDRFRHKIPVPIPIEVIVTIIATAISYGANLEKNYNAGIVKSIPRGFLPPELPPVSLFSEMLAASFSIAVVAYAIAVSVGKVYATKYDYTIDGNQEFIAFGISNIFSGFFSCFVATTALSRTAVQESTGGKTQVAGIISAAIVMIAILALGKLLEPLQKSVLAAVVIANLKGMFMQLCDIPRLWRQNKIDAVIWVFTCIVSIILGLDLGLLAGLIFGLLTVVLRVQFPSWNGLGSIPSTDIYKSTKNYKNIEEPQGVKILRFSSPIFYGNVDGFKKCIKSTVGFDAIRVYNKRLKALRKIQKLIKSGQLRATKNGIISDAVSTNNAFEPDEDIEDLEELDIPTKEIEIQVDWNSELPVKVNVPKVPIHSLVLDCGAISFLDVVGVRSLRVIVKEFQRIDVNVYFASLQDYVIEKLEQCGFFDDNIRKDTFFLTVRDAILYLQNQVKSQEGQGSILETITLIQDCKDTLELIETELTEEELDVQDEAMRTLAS
How it was run: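 PANC-1 cells stably co-expressing human H723R-pendrin and YFP-F46L/H148Q/I152L, treated with compounds for 20-24 h at 37 °C. Initial iodide influx rate after NaI-substituted HEPES buffer (pH 7.4) addition, taken from the initial slope of YFP fluorescence quench by nonlinear regression. EC50 reported in bins.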

H723R-pendrin [2] = target: T1, H723R-pendrin; assay: PTI assay (Cl−/HCO3− exchange activity); assay type: cell-based; details: PANC-1 cells, BCECF pHi
Experimental: Measurements of intracellular pH (pHi) in PANC-1 cells were performed with the pH-sensitive fluorescent probe 2′,7′-bis-(2-carboxyethyl)-5-(and-6)-carboxyfluorescein (BCECF) according to previously reported protocols. Briefly, cells were incubated with 2 μM BCECF acetoxy-methylester for 5 min and then perfused with a HCO3^−-buffered solution [containing 120 mM NaCl, 5 mM KCl, 1 mM MgCl2, 1 mM CaCl2, 10 mM d-glucose, 5 mM Hepes, and 25 mM NaHCO3 (pH 7.4)].
BCECF fluorescence was recorded at excitation wavelengths of 490 and 440 nm at a resolution of 2/s on a recording setup. The Cl^−/HCO3^− exchange activities were estimated from the initial rate of pHi increase as a result of Cl^− removal from the HCO3^−-containing buffer (25 mM HCO3^− with 5% CO2).
The pHi calibration was performed with standard pH solutions containing 150 mM KCl and 5 μM nigericin. The intrinsic buffer capacity (βi) was calculated by measuring ΔpHi in response to 5 to 40 mM NH4Cl pulses in Na^+-free solutions. Because the βi values were not substantially affected by transfection with the plasmids encoding for WT-pendrin or H723R-pendrin, the Cl^−/HCO3^− exchange activities were expressed as ΔpH unit/min without compensating for the buffer capacity.
It is indicated as exchange % with the following key: A=Exchange % greater than 50%; B=Exchange % less than 50%.

| EC50 (H723R-pendrin [1]) [µM] | Cl−/HCO3− exchange, % of WT-hPDS (H723R-pendrin [2]; 3 uM) | Cl−/HCO3− exchange, % of WT-hPDS (H723R-pendrin [2]; 10 uM) | SMILES |
| --- | --- | --- | --- |
| < 5 | A (A=Exchange % greater than 50%) | A (A=Exchange % greater than 50%) | NC1=C(c2cncc(-c3ccc(O)c(O)c3)n2)C(=O)CN1CC1CCCC1 [Compound 18] |
| < 5 | A (A=Exchange % greater than 50%) | A (A=Exchange % greater than 50%) | COc1cc(-c2nccc(C3=C(N)N(CC4CCCC4)CC3=O)n2)ccc1O [Compound 105] |
| < 5 | A (A=Exchange % greater than 50%) | A (A=Exchange % greater than 50%) | NC1=C(c2cncc(-c3ccc(O)c(O)c3)n2)C(=O)CN1c1ccccc1Cl [Compound 9] |
